Reference: US10753935B2, “Prognostic method and kits useful in said method” (Zelda Therapeutics Operations Pty Ltd, priority 2016, dated 2020)

Columns and labels:
HER2-CB2 heteromers [1] = target: T1, HER2-CB2 heteromers (Homo sapiens, UniProt P34972); assay: In situ proximity ligation assay of HER2-CB2 heteromers in HCC1954 cells; format: cell-based; set-up: HER2-CB2 heteromer expression in HCC1954 cells; endogenous in cells; host or cells: HCC1954; details: THC treatment
Description: HER2-CB2 heteromer expression in HCC1954 cells. Representative images of the PLA experiments, in response to the indicated treatments.
Cells were grown on glass coverslips and fixed in 4% paraformaldehyde, washed with PBS containing 20 mM glycine, permeabilized with the same buffer containing 0.05% Triton® X-100, and washed successively with PBS. HER2-CB2R heteromers were detected using the Duolink in situ Probemarker kit (Olink, Bioscience, Uppsala, Sweden). After 1 h of incubation at 37° C. with the blocking solution in a preheated humidity chamber, cells were incubated overnight in the antibody dilution medium with a mixture of equal amounts of rabbit anti-CB2 antibody (1:50, Cayman Chemical, Ann Arbor, Mich.) directly linked to a plus PLA probe, and rabbit anti-HER2 antibody (1:50, Santa Cruz Biotechnology, Santa Cruz, Calif., US) directly linked to a minus PLA probe. Cells were washed with wash buffer A at room temperature and incubated in a preheated humidity chamber for 30 min at 37° C. with the ligation solution (Duolink® II ligation stock, 1:5, and Duolink II ligase, 1:40) to induce annealing and ligation of the two DNA probes. Amplification was done with the Duolink II detection reagents red kit, which contains fluorescence nucleotides. After exhaustive washing at room temperature with wash buffer B, cells were mounted using mounting medium with DAPI. […]

HER2-HER2 dimers = assay: In situ proximity ligation assay of HER2-HER2 dimers in HCC1954 cells; format: cell-based, human; details: THC treatment
Description: FIG. 6. HER2-HER2 dimer expression in HCC1954 cells. Representative images of the PLA experiments, in response to the indicated treatments.
(§1) Cells were grown on glass coverslips and fixed in 4% paraformaldehyde, washed with PBS containing 20 mM glycine, permeabilized with the same buffer containing 0.05% Triton® X-100, and washed successively with PBS. HER2-CB2R heteromers were detected using the Duolink in situ Probemarker kit (Olink, Bioscience, Uppsala, Sweden). After 1 h of incubation at 37° C. with the blocking solution in a preheated humidity chamber, cells were incubated overnight in the antibody dilution medium with a mixture of equal amounts of rabbit anti-CB2 antibody (1:50, Cayman Chemical, Ann Arbor, Mich.) directly linked to a plus PLA probe, and rabbit anti-HER2 antibody (1:50, Santa Cruz Biotechnology, Santa Cruz, Calif., US) directly linked to a minus PLA probe. […] Amplification was done with the Duolink II detection reagents red kit, which contains fluorescence nucleotides. […] PLA requires that both receptors be close enough to allow the two different antibody-DNA probes to be able to ligate (<17 nm) ((Soderberg et al., (2008), Methods., 45: 227-232; Trifilieff et al., (2011), BioTechniques, 51: 111-118). If the receptors are within sufficient proximity, a punctate fluorescent signal can be detected by confocal microscopy.

HER2 [2] = assay: Western blot of HER2 in HCC1954 cells; format: cell-based, human; details: THC treatment
Description: FIG. 5. Protein expression in HCC1954 cells. Protein expression analysis by Western blot of total and phosphorylated (i.e., activated) HER2 in response to THC.
(§2) We have now confirmed this observation by Western blot in HCC1954 cells (FIG. 5).
HCC1954 cells were treated with RIPA buffer (50 mM Tris, 150 mM NaCl, 1% NP-40, 0.5% sodium deoxycholate, and 0.1% sodium dodecyl sulfate), containing a cocktail of protease inhibitors (pepstatin, leupeptin, aprotinin, quimostatin, antipain, and phenylmethylsulfonyl fluoride) and phosphatase inhibitors (Na3VO4 and NaF; Sigma Chemical Co., St. Louis, Mo.). Proteins separated by sodium dodecyl sulfate-10% polyacrylamide reducing gels were transferred to polyvinylidene difluoride membranes (Bio-Rad Laboratories, Hercules, Calif.). After blocking with 5% skim milk and 1% bovine serum albumin, membranes were incubated with the anti-ErbB2 antiserum (Santa Cruz Biotechnology, Santa Cruz, Calif.) diluted 1:500 for 3 h at room temperature. […] A chemiluminescence detection system (Amersham Pharmacia Biotech, Piscataway, N.J.) was used to reveal peroxidase. Controls were carried out with an anti-actin monoclonal antibody (MAb; Boehringer Mannheim, Indianapolis, Ind.) diluted 1:5,000 followed by an anti-mouse IgG peroxidase-labeled antibody diluted 1:4,000 (Zymed).

HER2 [3] = assay: HER2 degradation in BT474 cells; format: cell-based, human; details: THC treatment, previously observed
Text: (§3) As discussed in Example 1, we observed these effects using Proximity Ligation assays (PLAs) and Bioluminescence Resonance Energy Transfer (BRET) assays.
as §2

HER2-CB2 heteromers [4] = target: T1, HER2-CB2 heteromers; assay: Co-immunoprecipitation of HER2 and CB2-HA in HCC1954 cells; format: cell-based; set-up: HER2-CB2 heteromer expression in HCC1954 cells; endogenous in cells; host or cells: HCC1954; details: HCC1954 cells transfected with CB2-HA; 3 μM THC for 4 h
Description: (§4) FIG. 3. Western blot analysis of HER2 and CB2 in the indicated cell lines. Cells were transfected with a CB2-HA encoding plasmid and treated with THC for 4 h. HER2 was then immune-precipitated with an anti-HER2 antibody, and blots were developed with anti-HA antibodies.
(§5) HCC1954 and BT474 cells were transiently transfected with pcDNA3-HA-hCB2 or the corresponding empty vector (pcDNA3), using Fugene HD Transfection Reagent (Promega, Madison, Wis.). 48 h after transfection, cells were treated with 3 μM THC or the corresponding vehicle (DMSO) for 4 h, and lysed using a specific buffer for co-immunoprecipitation (40 mM Hepes pH 7.5, 120 mM NaCl, 1 mM EDTA, 10 mM sodium pyrophosphate, 10 mM sodium glycerophosphate, 50 mM sodium fluoride, 0.5 mM sodium orthovanadate, 0.3% CHAPS and supplemented with 1 mM benzamidine and 0.1 mM PMSF in fresh). Cell lysates (1 mg) were immunoprecipitated using 5 μg of anti-ErbB2 antibody (Neu C-18, Santa Cruz Biotechnology, Santa Cruz, Calif., US) covalently coupled to 5 μL protein G-sepharose. After immunoprecipitation, proteins were separated by SDS-10% polyacrylamide reducing gels and transferred to PVDF membranes. […] Bound antibodies were detected with a donkey anti-rabbit immunoglobulin G (IgG) peroxidase-labeled antibody (GE Healthcare, UK). […]

HER2-CB2 heteromers [5] = target: T1, HER2-CB2 heteromers; assay: PLA and BRET assays of HER2-CB2 heteromers in BT474 cells; format: cell-based; details: THC at concentrations that produce anti-tumor responses, previously reported by the applicants
Description: as §3, §1

HER2-CB2 heteromers [6] = target: T1, HER2-CB2 heteromers; assay: Co-immunoprecipitation of HER2 and CB2-HA in BT474 cells; format: cell-based; details: BT474 cells transfected with CB2-HA; 3 μM THC for 4 h
Description: as §4, §5

T1 sequence (P34972 whole entry, one chain of several): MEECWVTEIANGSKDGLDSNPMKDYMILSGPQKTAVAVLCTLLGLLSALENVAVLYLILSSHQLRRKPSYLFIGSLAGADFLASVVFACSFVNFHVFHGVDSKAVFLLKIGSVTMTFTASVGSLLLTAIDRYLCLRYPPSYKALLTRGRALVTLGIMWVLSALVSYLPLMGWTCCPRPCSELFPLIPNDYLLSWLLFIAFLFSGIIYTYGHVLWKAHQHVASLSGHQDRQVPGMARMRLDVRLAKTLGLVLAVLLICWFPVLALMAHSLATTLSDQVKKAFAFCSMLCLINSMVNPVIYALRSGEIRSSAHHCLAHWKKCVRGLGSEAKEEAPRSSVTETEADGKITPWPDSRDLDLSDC

With `CCCCCc1cc(O)c2c(c1)OC(C)(C)[C@@H]1CCC(C)=C[C@@H]21` [THC, Δ^9-tetrahydrocannabinol] the “effect on HER2-CB2 heteromers (PLA)” value (HER2-CB2 heteromers [1]) was “breaks the heteromers by acting on CB2”, the “effect on HER2-HER2 dimers (PLA)” value (HER2-HER2 dimers) was “disrupts not only HER2-CB2 but also HER2-HER2 dimers” and the “effect on HER2 protein level (Western blot)” value (HER2 [2]) was “degradation of HER2”. For the same compound, the “effect on HER2 protein level” value (HER2 [3]) was “degradation of HER2”, the “effect on HER2-CB2 heteromers (co-IP)” value (HER2-CB2 heteromers [4]) was “disrupts HER2-CB2 heteromers” and the “effect on HER2-CB2 heteromers (PLA, BRET)” value (HER2-CB2 heteromers [5]) was “disrupts HER2-CB2 heteromers”. The “effect on HER2-CB2 heteromers (co-IP)” value (HER2-CB2 heteromers [6]) was “disrupts HER2-CB2 heteromers”.
